In patent publication US6670183B2, “88kDa tumorigenic growth factor and antagonists” (A & G Pharmaceutical, Inc., priority 1997, dated 2003):

Assays:
GP88 = experiment: regulation of GP88 expression in 1246, 1246-3A and PC cells, Northern and Western blot; assay type: cell-based, mouse; conditions: 1246 cells
Description: Fifteen or twenty micrograms of total RNA per sample were subjected to electrophoresis on a denaturing 1.2% agarose gel containing 0.22 M formaldehyde in 1×MOPS (10×MOPS: 0.2 M MOPS, 50 mM NaOAc 10 mM EDTA). RNA was blotted on nitrocellulose membrane (MSI Inc., Westboro, Mass.) by overnight capillary transfer in 10×SSC (20×SSC=3 M NaCl, 0.3 M Na Citrate pH 7.0). […] Results were quantitated by densitometric scanning. Ribosomal protein L32 mRNA was detected as internal standard for normalizing RNA loading.
Amounts of cell lysate and culture medium to be analyzed were normalized by cell number of 18×10^5 and 3×10^5 respectively. […] Proteins were electro transferred to immobilon membranes and GP88 detected using anti K19T antibody conjugated to horseradish peroxidase and detected by enhanced chemiluminescence (ECL).
GP88 expression was examined in 1246 cells in different culture conditions such as defined medium and serum containing medium. It was shown that the level of expression of GP88 mRNA (measured by Northern blot analysis) and protein (measured by Western blot analysis) in 1246 and in 1246-3A cells is inhibited when the cells are treated with 2% fetal bovine serum indicating the presence of circulating inhibitors of GP88 expression in fetal bovine serum (FIG. 1C). […]

GP88 mRNA = experiment: regulation of GP88 mRNA expression in MDA MB-453 cells; assay type: cell-based, human

Substance	GP88 mRNA expression (GP88)	GP88 mRNA expression (GP88 mRNA)
EGF: epidermal growth factor	stimulated	
insulin: hormone		stimulated
